“Also recorded” adds a separate entry of the source. Where two headings read alike, the source gives them in different places.
Key:
[1] = Primary acute toxicity test; assay type: in vivo; settings: mice
Procedure: 5 g/kg and 10 g/kg of compound 149 were administered orally to mice once and observed for 14 days. Body weights of 48 hours after administration in mice were no different. At 14th day after administration, the mouse average body weights in 5 g/kg and 10 g/kg groups increased 7 g and 5 g respectively. There was no any other different for every animal and no death were observed.

[2] = test system: chronic renal failure induced by 5/6 nephrectomy in rats; assay type: in vivo, Male Wistar rats
Procedure: The model on chronic renal failure induced by partial renal ablation in rats was set up according to the Guidelines of Pre-clinic Research for New Drugs. Male Wistar rats with initial body weights of 200 g, anesthetized with 35 mg/kg of pentobarbital i.p., the right kidney was removed, and the upper and lower pole […] of the left kidney were resected, stop bleeding, closed the abdominal and sutured. Four weeks following surgery, the BUN, creatinine and urinary protein in rats were determined. […] Rats were randomly divided into seven groups, 30/group, with sham, model, Benazepril (4 mg/kg/day) and Losartan (10 mg/kg/day) as positive control, and compound 149 groups (7.5 mg/kg/day, 15 mg/kg/day and 30 mg/kg/day, respectively). All the groups were administered intragastrically, once per day and 6 (six) times per week, till 16 weeks post surgery. Body weights were weighed to observe the growth of the rats. The above indexes were determined every 4 weeks up to the 16th week following the initiation of drug administration, and at each time, a number of animals were sacrificed and the kidneys were harvested for pathological analysis. Pathological lesions in chronic renal failure models are mainly glomerulosclerosis and interstitial fibrosis. According to the damage extents, glomerulosclerosis is divided into five grades (0 IV). 0 grade means no glomerulus pathological changes at all, and IV grade means ultimately glomerular sclerosis and glassy pathological changes.

[3] = test system: kidney tubulointerstitial fibrosis caused by unilateral ureteral obstruction (UUO) in rats; assay: Inhibition of kidney tubulointerstitial fibrosis caused by unilateral ureteral obstruction (UUO) in rats; assay type: in vivo, Male Wistar rats; settings: for BUN / Scr. (serum creatinine): oral for 16 days
Procedure: Male Wistar rats with initial body weights of 180˜230 g were used. Unilateral ureteral obstruction was performed under pentobarbital anesthesia (35 mg/kg) and sterile conditions. Via a midline incision, the left ureteral was ligated. Sham surgery was performed by making a midline incision but leaving ureteral intact. Following surgery, rats were randomly divided into sham, model, Benazepril (4 mg/kg/day) and Losartan (10 mg/kg/day) as positive control, and compound 149 (5 mg/kg/day, 10 mg/kg/day and 20 mg/kg/day). Starting 2 day before surgery, Benazepril, Losartan and compound 149 were administered for 16 days orally. BUN and creatinine in serum were determined in the 11th and 16th day (Table 6) following initiation of Benazepril, Losartan and compound 149 treatment, at which time animals were killed and the kidneys were harvested. Tissues were dissected, weighed, fixed in 10% formaldehyde and embedded in paraffin wax for pathological analysis.

[4] = test system: Salmonella typhimurium TA97, TA98, TA100 and TA102; assay: Ames test; assay type: cell-based; settings: 0.5-5000.0 μg/plate, presence or absence of S9
Procedure: His^− type Salmonella typhimurium TA97, TA98, TA100 and TA102 were employed. Concentration of the test compound was 0.5, 5.0, 50.0, 500.0, 5000.0 μg/plate. S9 was the microsome component of liver homogenate of a rat weighted 200 g. The test compound 149 was tested in the presence or absence of S9.
According to the Salmonella typhimurium/mammalian microsome enzyme mutagenic test method revised by Ames (1983), metabolism activated or non-metabolism activated plate incorporation assay was conducted on compound 149, and the strain which passed the assay was seeded to the culture medium and incubated at 37° C. under shaking for 15 hours. 100 μl compound solutions with various concentrations were added to 0.1 ml of the culture liquid, and then S9 mixture or phosphate buffer was added, and the mixtures were incubated in a 37° C. water bath for 20 minutes. After that, 2 ml of upper layer agar was added, mixed well and poured into a plate with lower layer agar and incubated at 37° C. for 48 hours. The number of the colonies in each plate was counted.

[5] = 8th week after administration (12 weeks after nephrectomy), 7.5 mg/kg
[6] = 8th week after administration (12 weeks after nephrectomy), 15 mg/kg
[7] = 8th week after administration (12 weeks after nephrectomy), 30 mg/kg
[8] = 8th week after administration (12 wk after nephrectomy), 7.5 mg/kg
[9] = 8th week after administration (12 wk after nephrectomy), 15 mg/kg
[10] = 8th week after administration (12 wk after nephrectomy), 30 mg/kg
[11] = 12th week after administration (16 weeks after nephrectomy), 7.5 mg/kg
[12] = 12th week after administration (16 weeks after nephrectomy), 15 mg/kg
[13] = 12th week after administration (16 weeks after nephrectomy), 30 mg/kg
[14] = 12th week after administration (16 wk after nephrectomy), 7.5 mg/kg
[15] = 12th week after administration (16 wk after nephrectomy), 15 mg/kg
[16] = 12th week after administration (16 wk after nephrectomy), 30 mg/kg

Structure (SMILES): Cc1c(O)c([N+](=O)[O-])cc2cc(C(=O)Nc3ccc(O)c(C(=O)O)c3)c(=O)oc12 [Compound 149, 3-(3′-carboxy-4′-hydroxy-phenylamidocarbonyl)-6-nitro-7-hydroxy-8-methyl-coumarin]
- death ([1]; 5 g/kg and 10 g/kg, observed for 14 days): no death
- increase of average body weights at 14th day after administration ([1]; oral once, 5 g/kg): 7 g
- Body weights of 48 hours after administration ([1]; oral once, 5 g/kg and 10 g/kg): no different
- increase of average body weights at 14th day after administration ([1]; oral once, 10 g/kg): 5 g
- various parameters (BUN, Cre, TGF-β1, Ang II) compared with the positive controls Benazepril and Losartan ([2]; 5/6 nephrectomy rats): all better than those of the Benazepril group and are equivalent to those of the Losartan group
- BUN [2, 5]: 22.35 ± 3.120 mg/dL
- serum creatinine (Scr.) [2, 5]: 2.14 ± 0.500 mg/dL
- BUN [2, 6]: 26.04 ± 4.234 mg/dL
- serum creatinine (Scr.) [2, 6]: 1.80 ± 0.550 mg/dL
- BUN [2, 7]: 30.54 ± 11.697 mg/dL
- serum creatinine (Scr.) [2, 7]: 1.89 ± 0.184 mg/dL
- AII (Angiotensin II) [2, 8]: 63.9 ± 13.2 pg/mL
- UP (urinary protein) [2, 8]: 30.1 ± 16.6 mg/day
- serum TGF-β1 [2, 8]: 20.0 ± 6.7 ng/mL
- AII (Angiotensin II) [2, 9]: 49.9 ± 21.3 pg/mL
- UP (urinary protein) [2, 9]: 30.4 ± 16.2 mg/day
- serum TGF-β1 [2, 9]: 18.6 ± 12.2 ng/mL
- AII (Angiotensin II) [2, 10]: 41.0 ± 12.5 pg/mL
- UP (urinary protein) [2, 10]: 34.3 ± 12.1 mg/day
- serum TGF-β1 [2, 10]: 18.9 ± 10.1 ng/mL
- Glomerulosclerosis Grade (%): 0 ([2]; 8 wk after ad., 7.5 mg/kg): 15.7 ± 19.0%
- Glomerulosclerosis Grade (%): I ([2]; 8 wk after ad., 7.5 mg/kg): 24.0 ± 21.1%
- Glomerulosclerosis Grade (%): II ([2]; 8 wk after ad., 7.5 mg/kg): 30.0 ± 20.8%
- Glomerulosclerosis Grade (%): III ([2]; 8 wk after ad., 7.5 mg/kg): 23.2 ± 28.5%
- Glomerulosclerosis Grade (%): IV ([2]; 8 wk after ad., 7.5 mg/kg): 8.0 ± 13.0%
- Glomerulosclerosis Total Grade ([2]; 8 wk after ad., 7.5 mg/kg): 5.7 ± 2.9
- Glomerulosclerosis Grade (%): 0 ([2]; 8 wk after ad., 15 mg/kg): 37.5 ± 29.3 %
- Glomerulosclerosis Grade (%): I ([2]; 8 wk after ad., 15 mg/kg): 27.5 ± 16.3%
- Glomerulosclerosis Grade (%): II ([2]; 8 wk after ad., 15 mg/kg): 18.8 ± 9.9%
- Glomerulosclerosis Grade (%): III ([2]; 8 wk after ad., 15 mg/kg): 13.3 ± 20.7%
- Glomerulosclerosis Grade (%): IV ([2]; 8 wk after ad., 15 mg/kg): 2.9 ± 8.2%
- Glomerulosclerosis Total Grade ([2]; 8 wk after ad., 15 mg/kg): 3.9 ± 1.7
- Glomerulosclerosis Grade (%): 0 ([2]; 8 wk after ad., 30 mg/kg): 28.3 ± 20.8%
- Glomerulosclerosis Grade (%): I ([2]; 8 wk after ad., 30 mg/kg): 34.2 ± 23.0%
- Glomerulosclerosis Grade (%): II ([2]; 8 wk after ad., 30 mg/kg): 7.5 ± 8.8 %
- Glomerulosclerosis Grade (%): III ([2]; 8 wk after ad., 30 mg/kg): 17.5 ± 30.7%
- Glomerulosclerosis Grade (%): IV ([2]; 8 wk after ad., 30 mg/kg): 6.7 ± 13.4%
- Glomerulosclerosis Total Grade ([2]; 8 wk after ad., 30 mg/kg): 4.9 ± 3.5
- BUN [2, 11]: 39.42 ± 4.686 mg/dL
- serum creatinine (Scr.) [2, 11]: 2.73 ± 0.78 mg/dL
- BUN [2, 12]: 37.32 ± 5.467 mg/dL
- serum creatinine (Scr.) [2, 12]: 2.63 ± 0.38 mg/dL
- BUN [2, 13]: 36.60 ± 5.422 mg/dL
- serum creatinine (Scr.) [2, 13]: 2.10 ± 0.71 mg/dL
- AII (Angiotensin II) [2, 14]: 48.3 ± 48.5 pg/mL
- UP (urinary protein) [2, 14]: 66.7 ± 38.8 mg/day
- serum TGF-β1 [2, 14]: 13.6 ± 7.1 ng/mL
- AII (Angiotensin II) [2, 15]: 41.3 ± 28.4 pg/mL
- UP (urinary protein) [2, 15]: 52.3 ± 34.4 mg/day
- serum TGF-β1 [2, 15]: 12.3 ± 7.7 ng/mL
- AII (Angiotensin II) [2, 16]: 19.2 ± 9.19 pg/mL
- UP (urinary protein) [2, 16]: 48.2 ± 31.6 mg/day
- serum TGF-β1 [2, 16]: 11.6 ± 6.7 ng/mL
- Glomerulus pathological scores, compared with the model group ([2]; 12 weeks after nephrectomy (8 weeks since administration), compound 149 30 mg/kg, Losartan 10 mg/kg/day): less than that of the model group significantly
- rates of 0 grade glomerylus in residual kidney, compared with the model group ([2]; 12 weeks after nephrectomy (8 weeks since administration), compound 149 30 mg/kg, Losartan 10 mg/kg/day, P<0.05): higher than that of the model group with significant difference
- Glomerulosclerosis Grade (%): 0 ([2]; 12 wk after ad., 7.5 mg/kg): 0%
- Glomerulosclerosis Grade (%): I ([2]; 12 wk after ad., 7.5 mg/kg): 2.3 ± 6.3%
- Glomerulosclerosis Grade (%): II ([2]; 12 wk after ad., 7.5 mg/kg): 37.1 ± 16.0%
- Glomerulosclerosis Grade (%): III ([2]; 12 wk after ad., 7.5 mg/kg): 51.4 ± 8.6%
- Glomerulosclerosis Grade (%): IV ([2]; 12 wk after ad., 7.5 mg/kg): 13.8 ± 20.6%
- Glomerulosclerosis Total Grade ([2]; 12 wk after ad., 7.5 mg/kg): 8.6 ± 1.9
- Glomerulosclerosis Grade (%): 0 ([2]; 12 wk after ad., 15 mg/kg): 0%
- Glomerulosclerosis Grade (%): I ([2]; 12 wk after ad., 15 mg/kg): 8.1 ± 14.1%
- Glomerulosclerosis Grade (%): II ([2]; 12 wk after ad., 15 mg/kg): 38.1 ± 27.4%
- Glomerulosclerosis Grade (%): III ([2]; 12 wk after ad., 15 mg/kg): 46.2 ± 26.1%
- Glomerulosclerosis Grade (%): IV ([2]; 12 wk after ad., 15 mg/kg): 9.1 ± 12.6%
- Glomerulosclerosis Total Grade ([2]; 12 wk after ad., 15 mg/kg): 7.7 ± 1.7
- Glomerulosclerosis Grade (%): 0 ([2]; 12 wk after ad., 30 mg/kg): 0%
- Glomerulosclerosis Grade (%): I ([2]; 12 wk after ad., 30 mg/kg): 2.0 ± 4.5%
- Glomerulosclerosis Grade (%): II ([2]; 12 wk after ad., 30 mg/kg): 71.3 ± 11.5 %
- Glomerulosclerosis Grade (%): III ([2]; 12 wk after ad., 30 mg/kg): 26.7 ± 7.8 %
- Glomerulosclerosis Grade (%): IV ([2]; 12 wk after ad., 30 mg/kg): 0%
- Glomerulosclerosis Total Grade ([2]; 12 wk after ad., 30 mg/kg): 6.7 ± 0.2
- number of grade III glomerulus, compared with the model group ([2]; 16 weeks after nephrectomy (12 weeks since administration), compound 149 30 mg/kg (P<0.01), Losartan 10 mg/kg/day (P<0.05)): less than that of the model group significantly
- affection with the major organs such as heart, liver, spleen, and lungs (pathological results) ([2]; rat, in vivo): no significant affection
- improvement of each biochemical index compared with the positive controls ([3]; UUO rats): more significant than those of the Losartan group, and equivalent to those of the Benazepril group
- inflammatory cell infiltration and tubulointerstitial fibrosis (pathological changes) ([3]; UUO rats): significantly attenuated
- pathological results compared with the positive controls ([3]; UUO rats): better than Benazepril and equivalent with Losartan
- BUN ([3]; UUO rats, 5.0 mg/kg): 23.71 ± 4.17 mg/dL
- Scr. (serum creatinine) ([3]; UUO rats, 5.0 mg/kg): 1.58 ± 0.49 mg/kg
- BUN ([3]; UUO rats, 10.0 mg/kg): 20.76 ± 1.56 mg/dL
- Scr. (serum creatinine) ([3]; UUO rats, 10.0 mg/kg): 1.61 ± 0.36 mg/kg
- BUN ([3]; UUO rats, 20.0 mg/kg): 20.77 ± 2.04 mg/dL
- Scr. (serum creatinine) ([3]; UUO rats, 20.0 mg/kg): 1.60 ± 0.14 mg/kg
- overall result in the renal interstitial fibrosis model compared with the positive controls ([3]; unilateral ureteral ligation in rats): better than Benazepril and corresponds to (slightly better than) Losartan
- mutagenesis (Ames test result) [4]: no mutagenesis; also recorded: negative
- number of colony formation of Salmonella Typhimurium TA97, TA98, TA100 and TA102 [4]: did not increase
